Legend:
[1] = target: Recombinant human CD33 protein (Homo sapiens (Human), UniProt P20138); test: CD33 competitive binding assay for HTS drug screen (fluorescent multivalent sialic acid probe)
How it was run: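 Recombinant human CD33, coated overnight at 4° C from 10 μg/ml in pH 5.5 acetate, was preincubated briefly with compound. It was then exposed to a multivalent neutravidin/FITC/sialic acid analog A-375 probe (final 5 μM neutravidin, 15 μM A-375, 5 μM FITC) for 30 min at room temperature. After washing, bound FITC fluorescence was read.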

[2] = target: Recombinant Human Siglec-3/CD33 protein (His-CD33) (Homo sapiens (Human), UniProt P20138); test: Differential scanning fluorimetry (DSF) thermal shift assay; assay type: binding
Chain of Recombinant Human Siglec-3/CD33 protein (His-CD33) (P20138 18-259): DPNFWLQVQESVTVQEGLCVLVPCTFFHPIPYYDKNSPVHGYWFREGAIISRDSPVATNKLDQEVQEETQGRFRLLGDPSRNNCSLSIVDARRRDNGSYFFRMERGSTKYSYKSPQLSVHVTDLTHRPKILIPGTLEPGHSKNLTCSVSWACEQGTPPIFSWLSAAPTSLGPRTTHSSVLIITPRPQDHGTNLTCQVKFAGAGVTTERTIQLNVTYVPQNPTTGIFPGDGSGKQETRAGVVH

[3] = thermal melt shift of 0.5 μM CD33 protein with 50 μM compound
[4] = difference in thermal melt of CD33 protein (0.5 μM) with 50 μM compound

Chain of Recombinant human CD33 protein (P20138 18-259): as above

Row | Structure (SMILES) | EC50 [1] [nM] | DSF (dTmD) [2, 3] | DSF (dTmD) [2, 4] [°C]
1 | CC(=O)N[C@H]1[C@H]([C@H](O)[C@H](O)CNC(=O)c2coc(C)c2)O[C@@](CCN2CCOC[C@@]23CCN(C(=O)OC(C)(C)C)C3)(C(=O)O)C[C@@H]1O [A-158] | 133 | 10.4 | 
2 | CC(=O)N[C@H]1[C@H]([C@H](O)[C@H](O)CNC(=O)c2cc(Cl)c(F)c(Cl)c2)O[C@@](CCN2CCOC[C@@]23CCN(C(=O)OC(C)(C)C)C3)(C(=O)O)C[C@@H]1O [A-159] | 238 | 11.4 | 
3 | CC(=O)N[C@H]1[C@H]([C@H](O)[C@H](O)CNC(=O)c2cc(C)oc2C(F)(F)F)O[C@@](CCN2CCOC[C@@]23CCN(C(=O)OC(C)(C)C)C3)(C(=O)O)C[C@@H]1O [A-160] | 680 | 8.0 | 
4 | CC(=O)N[C@H]1[C@H]([C@H](O)[C@H](O)CNC(=O)c2cn[nH]c2)O[C@@](CCN2CCOC[C@@]23CCN(C(=O)OC(C)(C)C)C3)(C(=O)O)C[C@@H]1O [A-161] | 1080 | 5.9 | 
5 | CCC/C(C)=C/C(=O)NC[C@@H](O)[C@@H](O)[C@@H]1O[C@@](CCN2CCOC[C@@]23CCN(C(=O)OC(C)(C)C)C3)(C(=O)O)C[C@H](O)[C@H]1NC(C)=O [A-162] | 4210 | 4.8 | 
6 | C/C=C/C=C/C(=O)NC[C@@H](O)[C@@H](O)[C@@H]1O[C@@](CCN2CCOC[C@@]23CCN(C(=O)OC(C)(C)C)C3)(C(=O)O)C[C@H](O)[C@H]1NC(C)=O [A-163] | 700 | 5.7 | 
7 | CNC(=O)c1c(C)cc(C(=O)NC[C@@H](O)[C@@H](O)[C@@H]2O[C@@](CCN3CCOC[C@@]34CCN(C(=O)OC(C)(C)C)C4)(C(=O)O)C[C@H](O)[C@H]2NC(C)=O)cc1C [A-164] | 1560 | 5.3 | 
8 | COc1cc(C(=O)NC[C@@H](O)[C@@H](O)[C@@H]2O[C@@](CCN3CCOC[C@@]34CCN(C(=O)OC(C)(C)C)C4)(C(=O)O)C[C@H](O)[C@H]2NC(C)=O)ccc1C#N [A-165] | 1140 | 5.7 | 
9 | CC(=O)N[C@H]1[C@H]([C@H](O)[C@H](O)CNC(=O)c2cc(F)c(C(F)(F)F)c(F)c2)O[C@@](CCN2CCOC[C@@]23CCN(C(=O)OC(C)(C)C)C3)(C(=O)O)C[C@@H]1O [A-166] | 4000 | 6.9 | 
10 | CC(=O)N[C@H]1[C@H]([C@H](O)[C@H](O)CNC(=O)c2ccc(C(F)(F)F)c(C(F)(F)F)c2)O[C@@](CCN2CCOC[C@@]23CCN(C(=O)OC(C)(C)C)C3)(C(=O)O)C[C@@H]1O [A-167] | 3340 | 7.9 | 
11 | CC(=O)N[C@H]1[C@H]([C@H](O)[C@H](O)CNC(=O)c2cc(C(F)(F)F)cc(C(F)(F)F)c2)O[C@@](CCN2CCOC[C@@]23CCN(C(=O)OC(C)(C)C)C3)(C(=O)O)C[C@@H]1O [A-168] | 1970 | 8.3 | 
12 | CC(=O)N[C@H]1[C@H]([C@H](O)[C@H](O)CNC(=O)c2cccc(SC(F)(F)F)c2)O[C@@](CCN2CCOC[C@@]23CCN(C(=O)OC(C)(C)C)C3)(C(=O)O)C[C@@H]1O [A-169] | 4720 | 6.2 | 
13 | CC(=O)N[C@H]1[C@H]([C@H](O)[C@H](O)CNC(=O)c2ccc(=O)n(C)c2)O[C@@](CCN2CCOC[C@@]23CCN(C(=O)OC(C)(C)C)C3)(C(=O)O)C[C@@H]1O [A-170] | 3870 | 6.0 | 
14 | CC(=O)N[C@H]1[C@H]([C@H](O)[C@H](O)CNC(=O)c2ccc(=O)[nH]c2)O[C@@](CCN2CCOC[C@@]23CCN(C(=O)OC(C)(C)C)C3)(C(=O)O)C[C@@H]1O [A-171] | 10300 | 3.6 | 
15 | CC(=O)N[C@H]1[C@H]([C@H](O)[C@H](O)CNC(=O)c2cc(Br)ccc2F)O[C@@](CCN2CCOC[C@@]23CCN(C(=O)OC(C)(C)C)C3)(C(=O)O)C[C@@H]1O [A-172] | 820 | 7.6 | 
16 | CC(=O)N[C@H]1[C@H]([C@H](O)[C@H](O)CNC(=O)c2cn(C)nc2C(F)(F)F)O[C@@](CCN2CCOC[C@@]23CCN(C(=O)OC(C)(C)C)C3)(C(=O)O)C[C@@H]1O [A-174] | 1170 | 6.6 | 
17 | CC(=O)N[C@H]1[C@H]([C@H](O)[C@H](O)CNC(=O)c2c[nH]nc2C(F)(F)F)O[C@@](CCN2CCOC[C@@]23CCN(C(=O)OC(C)(C)C)C3)(C(=O)O)C[C@@H]1O [A-175] | 4110 | 4.6 | 
18 | CC(=O)N[C@H]1[C@H]([C@H](O)[C@H](O)CNC(=O)c2cnn(C)c2)O[C@@](CCN2CCOC[C@@]23CCN(C(=O)OC(C)(C)C)C3)(C(=O)O)C[C@@H]1O [A-177] | 670 | 7.5 | 
19 | CC(=O)N[C@H]1[C@H]([C@H](O)[C@H](O)CNC(=O)c2ccc3[nH]nnc3c2)O[C@@](CCN2CCOC[C@@]23CCN(C(=O)OC(C)(C)C)C3)(C(=O)O)C[C@@H]1O [A-178] | 146 | 9.5 | 

Row | Structure (SMILES) | EC50 [1] [nM] | DSF (dTmD) [2, 3] | DSF (dTmD) [2, 4] [°C]
20 | CC(=O)N[C@H]1[C@H]([C@H](O)[C@H](O)CNC(=O)c2cc(-c3csc(C)n3)on2)O[C@@](CCN2CCOC[C@@]23CCN(C(=O)OC(C)(C)C)C3)(C(=O)O)C[C@@H]1O [A-179] | 217 | 7.7 | 
21 | CC(=O)N[C@H]1[C@H]([C@H](O)[C@H](O)CNC(=O)c2ccc(C)c(C)c2)O[C@@](CCN2CCOC[C@@]23CCN(C(=O)OC(C)(C)C)C3)(C(=O)O)C[C@@H]1O [A-180] | 74 | 10.9 | 
22 | CC(=O)N[C@H]1[C@H]([C@H](O)[C@H](O)CNC(=O)c2cccc(C)c2)O[C@@](CCN2CCOC[C@@]23CCN(C(=O)OC(C)(C)C)C3)(C(=O)O)C[C@@H]1O [A-181] | 70 | 10.9 | 
23 | CC(=O)N[C@H]1[C@H]([C@H](O)[C@H](O)CNC(=O)c2cccc(Cl)c2)O[C@@](CCN2CCOC[C@@]23CCN(C(=O)OC(C)(C)C)C3)(C(=O)O)C[C@@H]1O [A-182] | 73 | 11.7 | 
24 | CC(=O)N[C@H]1[C@H]([C@H](O)[C@H](O)CNC(=O)c2cccc(N(C)C)c2)O[C@@](CCN2CCOC[C@@]23CCN(C(=O)OC(C)(C)C)C3)(C(=O)O)C[C@@H]1O [A-183] | 173 | 10.3 | 
25 | CC(=O)Nc1ccc(C(=O)NC[C@@H](O)[C@@H](O)[C@@H]2O[C@@](CCN3CCOC[C@@]34CCN(C(=O)OC(C)(C)C)C4)(C(=O)O)C[C@H](O)[C@H]2NC(C)=O)cc1 [A-184] | 1090 | 6.0 | 
26 | CC(=O)N[C@H]1[C@H]([C@H](O)[C@H](O)CNC(=O)c2cc(F)c(F)c(F)c2)O[C@@](CCN2CCOC[C@@]23CCN(C(=O)OC(C)(C)C)C3)(C(=O)O)C[C@@H]1O [A-185] | 3600 | 5.0 | 
27 | CC(=O)N[C@H]1[C@H]([C@H](O)[C@H](O)CNC(=O)c2ccc(Cl)c(Cl)c2)O[C@@](CCN2CCOC[C@@]23CCN(C(=O)OC(C)(C)C)C3)(C(=O)O)C[C@@H]1O [A-186] | 127 | 10.8 | 
28 | CC(=O)N[C@H]1[C@H]([C@H](O)[C@H](O)CNC(=O)c2ccccc2)O[C@@](CCN2CCOC[C@@]23CCN(C(=O)OC(C)(C)C)C3)(C(=O)O)C[C@@H]1O [A-187] | 1010 | 6.8 | 
29 | CC(=O)N[C@H]1[C@H]([C@H](O)[C@H](O)CNC(=O)c2cc(C)on2)O[C@@](CCN2CCOC[C@@]23CCN(C(=O)OC(C)(C)C)C3)(C(=O)O)C[C@@H]1O [A-188] | 2080 | 4.5 | 
30 | CC(=O)N[C@H]1[C@H]([C@H](O)[C@H](O)CNC(=O)c2cnc(O)c(C)c2)O[C@@](CCN2CCOC[C@@]23CCN(C(=O)OC(C)(C)C)C3)(C(=O)O)C[C@@H]1O [A-189] | 150 | 9.8 | 
31 | CC(=O)N[C@H]1[C@H]([C@H](O)[C@H](O)CNC(=O)c2cc(C)cc(C)c2)O[C@@](CCN2CCOC[C@@]23CCN(C(=O)OC(C)(C)C)C3)(C(=O)O)C[C@@H]1O [A-190] | 119 | 10.1 | 
32 | CC(=O)N[C@H]1[C@H]([C@H](O)[C@H](O)CNC(=O)c2cc(C)c(=O)n(C)c2)O[C@@](CCN2CCOC[C@@]23CCN(C(=O)OC(C)(C)C)C3)(C(=O)O)C[C@@H]1O [A-191] | 163 | 9.4 | 
33 | CC(=O)N[C@H]1[C@H]([C@H](O)[C@H](O)CNC(=O)c2cc(C)c(F)c(C)c2)O[C@@](CCN2CCOC[C@@]23CCN(C(=O)OC(C)(C)C)C3)(C(=O)O)C[C@@H]1O [A-192] | 47 | 12.1 | 
34 | CC(=O)N[C@H]1[C@H]([C@H](O)[C@H](O)CNC(=O)c2cc(C)c(O)c(C)c2)O[C@@](C/C=C/C2CCN(C(=O)OC(C)(C)C)C2)(C(=O)O)C[C@@H]1O (stereo partly shown) [A-194] | 26 | 11.7 | 
35 | CC(=O)N[C@H]1[C@H]([C@H](O)[C@H](O)CNC(=O)c2cc(C)c(O)c(C)c2)O[C@@](C/C=C/C2(C)CCN(C(=O)OC(C)(C)C)C2)(C(=O)O)C[C@@H]1O (stereo partly shown) [A-195] | 42 | 10.8 | 
36 | CC(=O)N[C@H]1[C@H]([C@H](O)[C@H](O)CNC(=O)c2cc(C)c(O)c(C)c2)O[C@@](CCCC2(C)CCN(C(=O)OC(C)(C)C)C2)(C(=O)O)C[C@@H]1O (stereo partly shown) [A-196] | 257 | 7.7 | 
37 | CC(=O)N[C@H]1[C@H]([C@H](O)[C@H](O)CNC(=O)c2cc(C)c(O)c(C)c2)O[C@@](CCN2CCOC[C@@]23CCN(C(=O)OC(C)(C)C)C3)(C(=O)O)C[C@]1(C)O [A-200] | 131 |  | 8.7
38 | CC(=O)N[C@H]1[C@H]([C@H](O)[C@H](O)CNC(=O)c2cc(C)c(O)c(C)c2)O[C@@](CCN2CCOC[C@@]23CCN(C(=O)OC(C)(C)C)C3)(C(=O)O)C[C@@]1(C)O [A-201] | 1720 |  | 6.2

Source: US20250313574A1, “SIALIC ACID DERIVATIVES AND METHODS OF USING SAME” (EISAI R&D MANAGEMENT CO., LTD., priority 2022, published 2025)
